Measured values as given in patent publication US7868135B2, “Compositions of lipopeptide antibiotic derivatives and methods of use thereof” (priority 2003, dated 2011).
Like-named read-outs stand apart in the source and are kept apart here. Starred links: 1 amine or outer side, 2 acyl side, 3 side chain; linkers in the order of their positions; H or OH if unused. Positions of bridges follow the written chain, without caps; N, C: chain ends. Non-standard residues stand in square brackets, D forms with d. Residues, ends and D or L forms follow the SMILES beside them. ξ: configuration not given here. *: point of attachment. ξAbu(3ξ-NHCOCH2NH2) = CC(NC(=O)CN)C(N)C(=O)O; ξAbu(βξ-NH2) = CC(N[*:3])C(N[*:1])C(=O)[*:2]; X8 = O=C(/C=C/c1ccc(N[*:1])cc1)[*:2]; ξAsp(βξ-Me) = CC(C(=O)O)C(N)C(=O)O; X1 = O=C(Cc1ccc(N[*:1])cc1)[*:2]; Myristoyl = CCCCCCCCCCCCCC(=O)*; Lauroyl = CCCCCCCCCCCC(=O)*; 4Abz = Nc1ccc(C(=O)O)cc1; Pip = O=C(O)[CH]1CCCCN1

System: Staphylococcus aureus (MSSA)
Method: (“Approved Standard M7-A3”).
The antimicrobial lipopeptide derivatives described herein were tested for antimicrobial activity against Gram-positive bacteria as follows. The minimum inhibitory concentrations (MIC) of the antimicrobial lipopeptide derivatives of the invention were determined using NCCLS guidelines M7-A6 (2003) with a slight modification in that doubling serial dilutions were used to dilute the test compounds. The broth phase microdilution method was used. Isolated colonies of Staphylococcus aureus (MSSA) from an 18-24 hour blood agar plate cultures were used to inoculate cation adjusted Mueller-Hinton broth (CAMHB) supplemented with 0.625 mM calcium. […] A negative control containing media alone and a positive growth control containing bacteria with media alone were also included. MICs were determined after incubating the plates at about 37° C. for 24 hours. […] In Tables 1 to 16, R is the core cyclic peptide of amphomycin or aspartocin, which can be in the form of a β-isomer, an anhydro, a dianhydro, or any combination thereof. […] Furthermore, a person of skill in the art will appreciate that all the pounds, or groups of compounds, derived from the various combinations of and substituents shown in Tables 1 to 16, are disclosed by the present the same extent as if each compound or group of compounds was set forth individually.

[1] = S. aureus (MSSA), CAMHB supplemented with 0.625 mM calcium, 24 hours at about 37° C., a range = compound tested multiple times

SMILES	MIC [1]	MIC (24 h)
CCCCCCCCCCCC(=O)NC(CC(=O)O)C(=O)NC1C(=O)N2CCCCC2C(=O)NC(C(C)C(=O)O)C(=O)NC(CC(=O)O)C(=O)NCC(=O)NC(CC(=O)O)C(=O)NCC(=O)NC(C(C)NC(=O)CNC)C(=O)NC(C(C)C)C(=O)N2CCCC2C(=O)NC1C (stereo not drawn) [Compound 74, C12-Amphomycin-9-Sar]	74/4 μg/mL	
CCCCCCCCCCCCCCCC(=O)NC(CC(=O)O)C(=O)NC1C(=O)N2CCCCC2C(=O)NC(C(C)C(=O)O)C(=O)NC(CC(=O)O)C(=O)NCC(=O)NC(CC(=O)O)C(=O)NCC(=O)NC(C(C)NC(=O)CNC)C(=O)NC(C(C)C)C(=O)N2CCCC2C(=O)NC1C (stereo not drawn) [Compound 75, C16-Amphomycin-9-Sar]	75/1 μg/mL	
CCCCCCCCCC(=O)NC(CC(=O)O)C(=O)NC1C(=O)N2CCCCC2C(=O)NC(C(C)C(=O)O)C(=O)NC(CC(=O)O)C(=O)NCC(=O)NC(CC(=O)O)C(=O)NCC(=O)NC(C(C)NC(=O)CCN)C(=O)NC(C(C)C)C(=O)N2CCCC2C(=O)NC1C (stereo not drawn) [Compound 76, C10-Amphomycin-9-(β-Ala)]	76/16 μg/mL	
CCCCCCCCCC(=O)NC(CC(=O)O)C(=O)NC1C(=O)N2CCCCC2C(=O)NC(C(C)C(=O)O)C(=O)NC(CC(=O)O)C(=O)NCC(=O)NC(CC(=O)O)C(=O)NCC(=O)NC(C(C)NC(=O)CNC)C(=O)NC(C(C)C)C(=O)N2CCCC2C(=O)NC1C (stereo not drawn) [Compound 77, C10-Amphomycin-9-Sar]	77/32 μg/mL	
CCCCCCCCCCCCCCCCC(=O)NC(CC(=O)O)C(=O)NC1C(=O)N2CCCCC2C(=O)NC(C(C)C(=O)O)C(=O)NC(CC(=O)O)C(=O)NCC(=O)NC(CC(=O)O)C(=O)NCC(=O)NC(C(C)NC(=O)CNC)C(=O)NC(C(C)C)C(=O)N2CCCC2C(=O)NC1C (stereo not drawn) [Compound 78, C17-Amphomycin-9-Sar]	78/1 μg/mL	
CCCCCCCCCCCC(=O)Nc1ccc(C(=O)NC(CC(=O)O)C(=O)NC2C(=O)N3CCCCC3C(=O)NC(C(C)C(=O)O)C(=O)NC(CC(=O)O)C(=O)NCC(=O)NC(CC(=O)O)C(=O)NCC(=O)NC(C(C)NC(=O)CN)C(=O)NC(C(C)C)C(=O)N3CCCC3C(=O)NC2C)cc1 (stereo not drawn) [Compound 87, C12-PABA-Amphomycin-9-Gly]		0.25 to 0.5 µg/mL
CCCCCCCCCCCCCC(=O)Nc1ccc(C(=O)NCC(=O)NC(CC(=O)O)C(=O)NC2C(=O)N3CCCCC3C(=O)NC(C(C)C(=O)O)C(=O)NC(CC(=O)O)C(=O)NCC(=O)NC(CC(=O)O)C(=O)NCC(=O)NC(C(C)NC(=O)CN)C(=O)NC(C(C)C)C(=O)N3CCCC3C(=O)NC2C)cc1 (stereo not drawn) [Compound 91, C14-PABA-Gly-Amphomycin-9-Gly] ({Myristoyl-4Abz}-GD[ξAbu(βξ-NH2)][Pip][ξAsp(βξ-Me)]DGDG[ξAbu(3ξ-NHCOCH2NH2)]VP; lactam 3-C; configuration not given here)		2 µg/mL

Second part, the compound after the results:

MIC [1]	MIC (24 h)	SMILES
79/1 μg/mL		CCCCCCCCCCCCCCCC(=O)NC(CC(=O)O)C(=O)NC1C(=O)N2CCCCC2C(=O)NC(C(C)C(=O)O)C(=O)NC(CC(=O)O)C(=O)NCC(=O)NC(CC(=O)O)C(=O)NCC(=O)NC(C(C)NC(=O)CCN)C(=O)NC(C(C)C)C(=O)N2CCCC2C(=O)NC1C (stereo not drawn) [Compound 79, C16-Amphomycin-9-(β-Ala)]
	32 µg/mL	CCCCCCCCCCCCCCC(=O)NC(CC(=O)O)C(=O)NC1C(=O)N2CCCCC2C(=O)NC(C(C)C(=O)O)C(=O)NC(CC(=O)O)C(=O)NCC(=O)NC(CC(=O)O)C(=O)NCC(=O)NC(C(C)NC(=O)CNC(=O)CCCCC)C(=O)NC(C(C)C)C(=O)N2CCCC2C(=O)NC1C (stereo not drawn) [Compound 81, C15-Amphomycin-9-Gly-C6]
	2 µg/mL	CCCCCCCCCCCCCCC(=O)NC(CC(=O)O)C(=O)NC1C(=O)N2CCCCC2C(=O)NC(C(C)C(=O)O)C(=O)NC(CC(=O)O)C(=O)NCC(=O)NC(CC(=O)O)C(=O)NCC(=O)NC(C(C)NC(=O)[C@H](C)N)C(=O)NC(C(C)C)C(=O)N2CCCC2C(=O)NC1C (stereo partly drawn) [Compound 82, C15-Amphomycin-9-Ala]
	2 µg/mL	CCCCCCCCCCCCCCCCNC(=O)NC(CC(=O)O)C(=O)NC1C(=O)N2CCCCC2C(=O)NC(C(C)C(=O)O)C(=O)NC(CC(=O)O)C(=O)NCC(=O)NC(CC(=O)O)C(=O)NCC(=O)NC(C(C)NC(=O)CN)C(=O)NC(C(C)C)C(=O)N2CCCC2C(=O)NC1C (stereo not drawn) [Compound 83, CH3—(CH2)15—NH—C(═O)-Amphomycin-9-Gly]
	2 to 4 µg/mL	CCCCCCCCCCCCCCCCS(=O)(=O)NC(CC(=O)O)C(=O)NC1C(=O)N2CCCCC2C(=O)NC(C(C)C(=O)O)C(=O)NC(CC(=O)O)C(=O)NCC(=O)NC(CC(=O)O)C(=O)NCC(=O)NC(C(C)NC(=O)CN)C(=O)NC(C(C)C)C(=O)N2CCCC2C(=O)NC1C (stereo not drawn) [Compound 84, CH3—(CH2)15—SO2-Amphomycin-9-Gly]
	0.25 µg/mL	CCCCCCCCCCCC(=O)Nc1ccc(CC(=O)NC(CC(=O)O)C(=O)NC2C(=O)N3CCCCC3C(=O)NC(C(C)C(=O)O)C(=O)NC(CC(=O)O)C(=O)NCC(=O)NC(CC(=O)O)C(=O)NCC(=O)NC(C(C)NC(=O)CN)C(=O)NC(C(C)C)C(=O)N3CCCC3C(=O)NC2C)cc1 (stereo not drawn) [Compound 86, C12-(p-Apa)-Amphomycin-9-Gly] (Lauroyl-[X1]D[ξAbu(βξ-NH2)][Pip][ξAsp(βξ-Me)]DGDG[ξAbu(3ξ-NHCOCH2NH2)]VP; lactam 3-C; configuration not given here)
	0.5 to 1 µg/mL	CCCCCCCCCCCC(=O)Nc1ccc(/C=C/C(=O)NC(CC(=O)O)C(=O)NC2C(=O)N3CCCCC3C(=O)NC(C(C)C(=O)O)C(=O)NC(CC(=O)O)C(=O)NCC(=O)NC(CC(=O)O)C(=O)NCC(=O)NC(C(C)NC(=O)CN)C(=O)NC(C(C)C)C(=O)N3CCCC3C(=O)NC2C)cc1 (stereo not drawn) [Compound 89, C12-(p-Trans-Cinnamyl)-Amphomycin-9-Gly] (Lauroyl-[X8]D[ξAbu(βξ-NH2)][Pip][ξAsp(βξ-Me)]DGDG[ξAbu(3ξ-NHCOCH2NH2)]VP; lactam 3-C; configuration not given here)
	4 µg/mL	CCCCCCCCCCCCCCC(=O)NC(CC(=O)O)C(=O)NC1C(=O)N2CCCCC2C(=O)NC(C(C)C(=O)O)C(=O)NC(CC(=O)O)C(=O)NCC(=O)NC(CC(=O)O)C(=O)NCC(=O)NC(C(C)NC(=O)CCCCCNC(=O)CN)C(=O)NC(C(C)C)C(=O)N2CCCC2C(=O)NC1C (stereo not drawn) [Compound 93, C15-Amphomycin-9-Ahx-Gly]
	2 µg/mL	CCCCCCCCCCCCCCC(=O)NC(CC(=O)O)C(=O)NC1C(=O)N2CCCCC2C(=O)NC(C(C)C(=O)O)C(=O)NC(CC(=O)O)C(=O)NCC(=O)NC(CC(=O)O)C(=O)NCC(=O)NC(C(C)NC(=O)CCCNC(=O)CCCN)C(=O)NC(C(C)C)C(=O)N2CCCC2C(=O)NC1C (stereo not drawn) [Compound 94, C15-Amphomycin-9-GABA-GABA]
	2 µg/mL	CCCCCCCCCCCCCCC(=O)NC(CC(=O)O)C(=O)NC1C(=O)N2CCCCC2C(=O)NC(C(C)C(=O)O)C(=O)NC(CC(=O)O)C(=O)NCC(=O)NC(CC(=O)O)C(=O)NCC(=O)NC(C(C)NC(=O)[C@@H]2CCCCN2)C(=O)NC(C(C)C)C(=O)N2CCCC2C(=O)NC1C (stereo partly drawn) [Compound 95, C15-Amphomycin-9-hPro]
	1 µg/mL	CCCCCCCCCCCCCCC(=O)NC(CC(=O)O)C(=O)NC1C(=O)N2CCCCC2C(=O)NC(C(C)C(=O)O)C(=O)NC(CC(=O)O)C(=O)NCC(=O)NC(CC(=O)O)C(=O)NCC(=O)NC(C(C)NC(=O)[C@H]2CCCCN2)C(=O)NC(C(C)C)C(=O)N2CCCC2C(=O)NC1C (stereo partly drawn) [Compound 96, C15-Amphomycin-9-(D-Pip)]
